Article PMC4876444, “Two-Photon Enzymatic Probes Visualizing Sub-cellular/Deep-brain Caspase Activities in Neurodegenerative Models” (Scientific Reports, 2016)

Assays:
HeLa cells = assay: Permeability of free dye and probes in live cells (fluorescence imaging); format: cell-based, human; conditions: live HeLa cells, probes 24 μM (AAN 5 μM), 1 h, 37 °C, one-photon fluorescence imaging with LysoTracker
Experimental: Supplementary Figure 5. Detection of caspase activities in live mammalian cells. (a) One-photon images of AAN (5 μM)/probes (24 μM)/DMSO (blank) in live HeLa cells after 1-h incubation together with LysoTracker. (Panels 1-7) bright field; (Panels 8-14) λex = 405 nm, λem = 420-480 nm (indicative of probes, blue); (Panels 15-21) λex = 405 nm, λem = 470-500 nm (indicative of AAN, green); (Panels 22-28) LysoTracker (λex = 543 nm, λem = 560-615 nm, red); (Panels 29-35) merged images of blue/red channels. Scale bar: 20 μm. (b) Bioimaging of NIH/3T3 cells transfected with active caspase-1 (Panels 2/3/5/6; 50 ng)/caspase-3 (Panels 8/9; 15 ng)/caspase-8 (Panels 11/12; 5 ng) with/without inhibitor treatment (Panels 3/6/9/12, 50 μM of Z-VAD-FMK incubated for 1 h before probes were added) as well as control cells (Panels 1/4/7/10, no caspase transfection) by using C1RB (24 μM)/C1FS (12 μM) for caspase-1, C3RA (24 μM) for caspase-3 and C8RA (24 μM) for caspase-8. Cells were co-stained with membrane tracker. (Green) signals from caspase-cleaved probes (λex = 760 nm, λem = 480-550 nm for all probes, except for C1FS with λem = 450-550 nm). (Red) membrane tracker (λex = 650 nm, λem = 655-740 nm). (Inset) bright field. Scale bar = 10 μm. […]
XTT assay. The cytotoxicity of our probes was determined by using the XTT colorimetric cell proliferation kit (Roche) following manufacturer’s guidelines. […]

[1] = tested on: caspase-3/-7-like activities in brain slices; assay: TPFM of caspase-3 activation in brain slices of ethanol-intoxicated mouse; conditions: 200 μM, 3 h prior to C3RA
Experimental: Figure 4 Imaging endogenous caspase activities in deep tissues. (a) TPFM of caspase-3 activation in brain slices of ethanol-intoxicated 7-day-old C57BL/6 mouse using C3RA (120 μM, 3 h). Top: 3D images of the mouse brain slice taken along the Z-axis from 0 to 160 μm at 10x magnification. Bottom: images taken at a depth of 120 μm at 40x magnification. […]: control slices (saline-treated); panels 2/6/4/8: treated with caspase-3/7 inhibitor I (200 μM, 3 h). Scale bar = 50 μm. (b) RFU readings extracted from (a) (FTPFM, blue bars) versus those from in vitro enzymatic assays using lysates from the same brain slices (RFU, orange bars). The signal from saline controls was set as “0” and that from ethanol-treated samples was set as “1” in RFU quantification. Due to the base-level active caspase-3 in the saline controls, negative readings were shown with inhibitor-treated samples. (c) WB analysis of caspase-3/-1/-8 activation in lysates of the same mouse brain slices shown in (a). (d) Normalized RFU readings from in vitro enzymatic assays using brain lysates (300 μg) of saline/ethanol treated mice after incubation with C1RB/C3RA/C8RA (6 μM) for 1 h at 37 °C.
All two-photon images were taken on a Leica TCS SP5X Confocal Microscope System. […]

cell permeability (HeLa cells) | Structure (SMILES) | effect of inhibitor pre-treatment on C3RA fluorescence in brain slices [1]
diffuse freely | CC(=O)c1ccc2cc(N)ccc2c1 [AAN, 2-acetyl-6-aminonaphthalene, reference compound] | 
 | COC[C@@H]1CCCN1S(=O)(=O)c1ccc2c(c1)C(=O)C(=O)N2 [caspase-3/7 inhibitor I, reference compound] | completely abolished the fluorescence
